In patent US8871681B2, “Herbicidal compositions comprising 4-amino-3-chloro-5-fluoro-6-(4-chloro-2-fluoro-3-methoxyphenyl) pyridine-2-carboxylic acid or a derivative thereof and certain sulfonylureas” (Dow AgroSciences LLC, priority 2012, dated 2014):

Key:
[1] = test system: SCPMA (Bolboschoenus maritimus or Schoenoplectus maritimus, sea clubrush); experiment: In-water applied weed control, transplanted paddy rice, greenhouse (Example II); assay type: in vivo, Bolboschoenus maritimus (L.) Palla
Method in brief: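 Transplanted rice and weeds at first to fourth true leaf stage in flooded mud pots (2.5–3 cm water), greenhouse ~29/26 °C day/night. Herbicides alone or mixed, in 1.25% crop oil concentrate (acetone for technical material), injected into the flood; visual 0–100% injury after ~3 weeks, expected mixture effects by Colby.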

[2] = test system: LEFCH (Leptochloa chinensis, Chinese sprangletop); experiment: Postemergence foliar-applied weed control, direct seeded rice, greenhouse (Example I); assay type: in vivo, Leptochloa chinensis (L.) Nees; conditions: Dinebra chinensis, post-emergence, 576 h, 24 DAA, read-out: Visual Weed Control (%) Obs
Excerpt: (§1) Seeds or nutlets of the desired test plant species were planted in a soil matrix prepared by mixing a loam or sandy loam soil (e.g., 28.6 percent silt, 18.8 percent clay, and 52.6 percent sand, with a pH of about 5.8 and an organic matter content of about 1.8 percent) and calcareous grit in an 80 to 20 ratio. The soil matrix was contained in plastic pots with a volume of 1 quart and a surface area of 83.6 square centimeters (cm^2). When required to ensure good germination and healthy plants, a fungicide treatment and/or other chemical or physical treatment was applied. The plants were grown for 8-22 days in a greenhouse with an approximate 14 h photoperiod which was maintained at about 29° C. during the day and 26° C. during the night. Nutrients (Peters Excel® 15-5-15 5-Ca 2-Mg and iron chelate) were applied in the irrigation solution as needed and water was added on a regular basis. Supplemental lighting was provided with overhead metal halide 1000-Watt lamps as necessary. The plants were employed for testing when they reached the first through fourth true leaf stage.
(§2) Treatments consisted of the acid or esters of 4-amino-3-chloro-5-fluoro-6-(4-chloro-2-fluoro-3-methoxy-phenyl)pyridine-2-carboxylic acid (Compound A), each formulated as an SC, and various herbicidal components alone and in combination. Forms of compound A were applied on an acid equivalent basis.
(§3) Other herbicidal components were applied on an active ingredient basis and included acetolactate synthase (ALS)-inhibiting herbicides (sulfonylurea chemical class) azimsulfuron formulated as Gulliver®, bensulfuron-methyl formulated as Londax® 60DF, cyclosulfamuron (technical material), ethoxysulfuron formulated as Sunrice® 15 WDG, flazasulfuron formulated as Katana®, flucetosulfuron formulated as Sukedachi® 1KG G, foramsulfuron formulated as Option®, imazosulfuron formulated as Brazzos® WG, iodosulfuron-methyl-sodium formulated as Hussar®, metsulfuron-methyl formulated as Lorate®, nicosulfuron formulated as Accent®, orthosulfamuron formulated as Strada® WG, primisulfuron-methyl (technical material), propyrisulfuron formulated as Zeta One®, rimsulfuron formulated as Matrix® WG, sulfometuron-methyl formulated as Oust®, and trifloxysulfuron-sodium formulated as Monument® 75WG.
(§4) Treatment requirements were calculated based upon the rates being tested, the concentration of active ingredient or acid equivalent in the formulation, and a 12 mL application volume at a rate of 187 L/ha.
(§5) For treatments comprised of formulated compounds, measured amounts of compounds were placed individually in 25 mL glass vials and diluted in a volume of 1.25% (v/v) Agri-Dex® crop oil concentrated to obtain 12× stock solutions. […] Application solutions were prepared by adding an appropriate amount of each stock solution (e.g., 1 mL) and diluted to the appropriate final concentrations with the addition of 10 mL of an aqueous mixture of 1.25% (v/v) crop oil concentrate so that the final spray solutions contained 1.25+/−0.05% (v/v) Agrcrop oil concentrate.
(§6) For treatments comprised of formulated and technical compounds, weighed amounts of the technical materials were placed individually in 25 mL glass vials and dissolved in a volume of 97:3 v/v acetone/DMSO to obtain 12× stock solutions, and measured amounts of the formulated compounds were placed individually in 25 mL glass vials and diluted in a volume of 1.25% (v/v) crop oil concentrate to obtain 12× stock solutions. […] Application solutions were prepared by adding an appropriate amount of each stock solution (e.g., 1 mL) and diluted to the appropriate final concentrations with the addition of an appropriate amount of an aqueous mixture of 1.5% (v/v) crop oil concentrate so that the final spray solutions contained 1.25% (v/v) crop oil concentrate. […]

[3] = test system: ECHCO (Echinochloa colona, junglerice); experiment: In-water applied weed control, transplanted paddy rice, greenhouse (Example II); assay type: in vivo, Echinochloa colona (L.) Link
Method: (§7) Weed seeds or nutlets of the desired test plant species were planted in puddled soil (mud) prepared by mixing a shredded, non-sterilized mineral soil (50.5 percent silt, 25.5 percent clay, and 24 percent sand, with a pH of about 7.6 and an organic matter content of about 2.9 percent) and water at a 1:1 volumetric ratio. The prepared mud was dispensed in 365 mL aliquots into 16-ounce (oz.) non-perforated plastic pots with a surface area of 86.59 square centimeters (cm^2) leaving a headspace of 3 centimeters (cm) in each pot. Rice seeds were planted in Sun Gro MetroMix® 306 planting mixture, which typically has a pH of 6.0 to 6.8 and an organic matter content of about 30 percent, in plastic plug trays. Seedlings at the second or third leaf stage of growth were transplanted into 860 mL of mud contained in 32-oz. non-perforated plastic pots with a surface area of 86.59 cm^2 4 days prior to herbicide application. The paddy was created by filling the headspace of the pots with 2.5 to 3 cm of water. When required to ensure good germination and healthy plants, a fungicide treatment and/or other chemical or physical treatment was applied. The plants were grown for 4-22 days in a greenhouse with an approximate 14 h photoperiod which was maintained at about 29′C during the day and 26° C. during the night. Nutrients were added as Osmocote® (19:6:12, N:P:K+minor nutrients) at 2 g per 16-oz. pot and 4 g per 32-oz. pot. Water was added on a regular basis to maintain the paddy flood, and supplemental lighting was provided with overhead metal halide 1000-Watt lamps as necessary. The plants were employed for testing when they reached the first through fourth true leaf stage.
(§8) Treatments consisted of the acid or esters of 4-amino-3-chloro-5-fluoro-6-(4-chloro-2-fluoro-3-methoxy-phenyl)pyridine-2-carboxylic acid (compound A) each formulated as an SC and various herbicidal components alone and in combination. Forms of compound A were applied on an acid equivalent basis.
(§9) Other herbicidal components were applied on an active ingredient basis and included acetolactate synthase (ALS)-inhibiting herbicides (sulfonylurea chemical class), azimsulfuron formulated as Gulliver®, bensulfuron-methyl formulated as Londax® 60DF, cyclosulfamuron (technical grade materail), ethoxysulfuron formulated as Sunrice® 15 WDG, flucetosulfuron formulated as Sukedachi® 1KG G, imazosulfuron formulated as Brazzos®, metsulfuron-methyl formulated as Lorate®, nicosulfuron formulated as Accent®, orthosulfamuron formulated as Strada® WG, propyrisulfuron formulated as Zeta One®, and rimsulfuron formulated as Matrix® WG.
(§10) Treatment requirements for each compound or herbicidal component were calculated based upon the rates being tested, the concentration of active ingredient or acid equivalent in the formulation, an application volume of 2 mL per component per pot, and an application area of 86.59 cm^2 per pot.
(§11) For formulated compounds, a measured amount was placed in an individual 100 or 200 mL glass vial and was dissolved in a volume of 1.25% (v/v) Agri-Dex® crop oil concentrate to obtain application solutions.
(§12) For technical grade compounds, a weighed amount was placed in an individual 100 to 200 mL glass vial and was dissolved in a volume of acetone to obtain concentrated stock solutions. […] The concentrated stock solutions obtained were diluted with an equivalent volume of an aqueous mixture containing 2.5% (v/v) crop oil concentrate so that the final application solutions contained 1.25% (v/v) crop oil concentrate.
(§13) Applications were made by injecting with a pipetter appropriate amounts of the application solutions, individually and sequentially, into the aqueous layer of the paddy. Control plants were treated in the same manner with the solvent blank. Applications were made so that all treated plant material received the same concentrations of acetone and crop oil concentrate. […]

[4] = test system: DIGSA (Digitaria sanguinalis, large crabgrass); experiment: Postemergence foliar-applied weed control, direct seeded rice, greenhouse (Example I); assay type: in vivo, Digitaria sanguinalis (L.) Scop.
Excerpt: as §1, §2, §3, §4, §5, §6

[5] = test system: LEFCH (Leptochloa chinensis, Chinese sprangletop); experiment: In-water applied weed control, transplanted paddy rice, greenhouse (Example II); assay type: in vivo, Leptochloa chinensis (L.) Nees
Method: as §7, §8, §9, §10, §11, §12, §13

[6] = test system: CYPRO (Cyperus rotundus, purple nutsedge); experiment: as above; assay type: in vivo, Cyperus rotundus L.
Method: as §7, §8, §9, §10, §11, §12, §13

[7] = test system: IPOHE (Ipomoea hederacea, ivyleaf morningglory); experiment: Postemergence foliar-applied weed control, direct seeded rice, greenhouse (Example I); assay type: in vivo, Ipomoea hederacea Jacq.; conditions: 20 DAA
Excerpt: as §1, §2, §3, §4, §5, §6

[8] = test system: ECHCG (Echinochloa crus-galli, barnyardgrass); experiment: In-water applied weed control, transplanted paddy rice, greenhouse (Example II); assay type: in vivo, Echinochloa crus-galli (L.) Beauv.
Method: as §7, §8, §9, §10, §11
For technical grade compounds, a weighed amount was placed in an individual 100 to 200 mL glass vial and was dissolved in a volume of acetone to obtain concentrated stock solutions. […]

[9] = test system: CYPES (Cyperus esculentus, yellow nutsedge); experiment: Postemergence foliar-applied weed control, direct seeded rice, greenhouse (Example I); assay type: in vivo, Cyperus esculentus L.; conditions: 20 DAA
Excerpt: as §1, §2, §3, §4, §5, §6

[10] = test system: BRAPP (Brachiaria platyphylla, broadleaf signalgrass); experiment: as above; assay type: in vivo, Brachiaria platyphylla (Griseb.) Nash; conditions: Urochloa platyphylla, post-emergence, 504 h, 21 DAA, read-out: Visual Weed Control (%) Obs
Method in brief: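 Greenhouse-grown plants in loam/sandy loam–grit soil (14 h photoperiod, ~29/26 °C) were sprayed postemergence at the first to fourth true leaf stage. Compound A (acid equivalent basis) and ALS-inhibiting sulfonylureas (active ingredient basis) were applied alone and in combination in 1.25% (v/v) crop oil concentrate at 187 L/ha by track sprayer; controls received solvent blank.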

[11] = test system: FIMMI (Fimbristylis miliacea, globe fringerush); experiment: In-water applied weed control, transplanted paddy rice, greenhouse (Example II); assay type: in vivo, Fimbristylis miliacea (L.) Vahl
Method: as §7, §8, §9, §10, §11, §12, §13

`COc1cc(OC)nc(NC(=O)NS(=O)(=O)c2c(Cl)nc3ccccn23)n1` [Imazosulfuron, 2-chloro-N-[[(4,6-dimethoxy-2-pyrimidinyl)amino]carbonyl]imidazo[1,2-a]pyridine-3-sulfonamide, reference compound] was tested, and the “Visual Weed Control (%) - 20 DAA SCPMA Obs” value ([1]; Table 38, 168 gai/ha alone) was 65%, the “Visual Weed Control (%) - 20 DAA SCPMA Obs” value ([1]; Table 39, 168 gai/ha alone) was 65% and the “Visual Weed Control (%) - 20 DAA SCPMA Obs” value ([1]; Table 40, 168 gai/ha alone) was 65%. For the same compound, the pest or weed control at 21 g/ha ([2]; 21 gai/ha) was 0%, the pest or weed control at 42 g/ha ([2]; 42 gai/ha) was 0% and the pest or weed control at 84 g/ha ([2]; 84 gai/ha) was 0%. For the same compound, the “Visual Weed Control (%) - 21 DAA ECHCO Obs” value ([3]; Table 38, 22.5 gai/ha alone) was 20%, the “Visual Weed Control (%) - 21 DAA ECHCO Obs” value ([3]; Table 38, 45 gai/ha alone) was 20% and the “Visual Weed Control (%) - 21 DAA ECHCO Obs” value ([3]; Table 39, 45 gai/ha alone) was 20%. The “Visual Weed Control (%) Obs” value ([4]; 24 DAA, 21 gai/ha) was 0% and the “Visual Weed Control (%) Obs” value ([4]; 24 DAA, 42 gai/ha) was 0%.

For `CCS(=O)(=O)c1cccnc1S(=O)(=O)NC(=O)Nc1nc(OC)cc(OC)n1` [Rimsulfuron, N-[[(4,6-dimethoxy-2-pyrimidinyl)amino]carbonyl]-3-(ethylsulfonyl)-2-pyridinesulfonamide, reference compound], the “Visual Weed Control (%) - 20 DAA LEFCH Obs” value ([5]; Table 49, 4.38 gai/ha alone) was 0%, the “Visual Weed Control (%) - 20 DAA LEFCH Obs” value ([5]; Table 50, 4.38 gai/ha alone) was 0% and the “Visual Weed Control (%) - 20 DAA LEFCH Obs” value ([5]; Table 50, 8.75 gai/ha alone) was 30%. For the same compound, the “Visual Weed Control (%) - 20 DAA CYPRO Obs” value ([6]; Table 49, 4.38 gai/ha alone) was 0%, the “Visual Weed Control (%) - 20 DAA CYPRO Obs” value ([6]; Table 50, 4.38 gai/ha alone) was 0% and the “Visual Weed Control (%) Obs” value ([7]; 4.38 gai/ha) was 60%. The “Visual Weed Control (%) Obs” value ([7]; 8.75 gai/ha) was 75%, the “Visual Weed Control (%) - 20 DAA ECHCG Obs” value ([8]; Table 50, 4.38 gai/ha alone) was 0% and the “Visual Weed Control (%) - 20 DAA ECHCG Obs” value ([8]; Table 50, 8.75 gai/ha alone) was 0%. The “Visual Weed Control (%) Obs” value ([9]; 2.19 gai/ha) was 0%, the “Visual Weed Control (%) Obs” value ([9]; 4.38 gai/ha) was 0% and the “Visual Weed Control (%) Obs” value ([9]; 8.75 gai/ha) was 60%. For the same compound, the “Visual Weed Control (%) Obs” value ([4]; 20 DAA, 8.75 gai/ha) was 70%.

In the case of `CCCc1ccc2nc(Cl)c(S(=O)(=O)NC(=O)Nc3nc(OC)cc(OC)n3)n2n1` [Propyrisulfuron, 2-chloro-N-[[(4,6-dimethoxy-2-pyrimidinyl)amino]carbonyl]-6-propylimidazo[1,2-b]pyridazine-3-sulfonamide, reference compound], the “Visual Weed Control (%) - 21 DAA LEFCH Obs” value ([5]; Table 47, 22.5 gai/ha alone) is reported as 0%, the “Visual Weed Control (%) - 21 DAA LEFCH Obs” value ([5]; Table 47, 45 gai/ha alone) is reported as 0% and the pest or weed control at 11.25 g/ha ([10]; 11.25 gai/ha) is reported as 0%. For the same compound, the pest or weed control at 22.5 g/ha ([10]; 22.5 gai/ha) was 20%, the pest or weed control at 45 g/ha ([10]; 45 gai/ha) was 10% and the “Visual Weed Control (%) - 21 DAA SCPMA Obs” value ([1]; Table 48, 11.25 gai/ha alone) was 80%. For the same compound, the “Visual Weed Control (%) - 21 DAA FIMMI Obs” value ([11]; Table 48, 11.25 gai/ha alone) was 85%, the “Visual Weed Control (%) - 21 DAA FIMMI Obs” value ([11]; Table 48, 22.5 gai/ha alone) was 88% and the “Visual Weed Control (%) - 21 DAA FIMMI Obs” value ([11]; Table 48, 45 gai/ha alone) was 95%.
